PubChem BioAssay (NCI)
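Results reflect a 48-hour exposure of cells in 96-well plates to compound at five concentrations. GI50: concentration for 50% inhibition of growth. TGI marks complete inhibition of growth.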

Columns and labels:
Test in all cases: NCI tumour cell line growth inhibition, 48 h
[1] = system: CCRF-CEM leukemia
[2] = system: TK-10 renal
[3] = system: KM12 colon
[4] = system: RPMI-8226 leukemia
[5] = system: MCF7 breast
[6] = system: DU-145 prostate
[7] = system: SW-620 colon
[8] = system: BT-549 breast
[9] = system: ACHN renal
[10] = system: SF-295 CNS

| SMILES | GI50 [1] [µM] | TGI [1] [µM] | GI50 [2] [µM] | TGI [2] [µM] | GI50 [3] [µM] | TGI [3] [µM] | GI50 [4] [µM] | TGI [4] [µM] | GI50 [5] [µM] | TGI [5] [µM] | GI50 [6] [µM] | TGI [6] [µM] | GI50 [7] [µM] | TGI [7] [µM] | GI50 [8] [µM] | TGI [8] [µM] | GI50 [9] [µM] | TGI [9] [µM] | GI50 [10] [µM] | TGI [10] [µM] |
| --- | --- | --- | --- | --- | --- | --- | --- | --- | --- | --- | --- | --- | --- | --- | --- | --- | --- | --- | --- | --- |
| CNC(=O)c1cncc(/C=C/c2ccccc2Cl)c1 | > 25 | > 25 | > 25 | > 25 | > 25 | > 25 | > 25 | > 25 | > 25 | > 25 | > 25 | > 25 | > 25 | > 25 | > 25 | > 25 | > 25 | > 25 | > 25 | > 25 |
| CCn1c(-c2nonc2N)nc2c(N3CCCC3)nccc21 | 18.4 | > 25 | 9.31 | > 25 | 15.7 | > 25 | 16.5 | > 25 | 5.27 | > 25 | 14 | > 25 | 8.07 | > 25 | > 21.8 | > 25 | 9.73 | > 25 | 9.27 | > 25 |
| O=C(O)c1ccc(SSc2ccc(C(=O)O)cn2)nc1 |  | > 100 |  | > 100 |  | > 100 |  | > 100 |  | > 100 |  | > 100 |  | > 100 |  | > 100 |  | > 100 |  | > 100 |
| C[C@@H]1CC[C@@]2(NC1)O[C@H]1C[C@H]3[C@@H]4CC[C@H]5C[C@@H](O)CC[C@]5(C)[C@H]4CC[C@]3(C)[C@H]1[C@@H]2C |  | > 100 |  | > 100 |  | 66.8 |  | 85.6 |  | > 100 |  | > 100 |  | > 100 |  | > 100 |  | 85.5 |  | > 100 |
| O=C[C@@H](CO)O[C@H](C=O)n1cnc2c(=O)[nH]cnc21 |  | 559 |  | 1830 |  | 1270 |  | 633 |  | 409 |  | 1450 |  | 868 |  | 2370 |  | 2050 |  | 2230 |
| CC1=NOC(=O)/C1=C/c1ccc2c(c1)OCO2 |  | 67.5 |  | > 100 |  | 36.6 |  | 55.2 |  | > 100 |  | 68.6 |  | 60.9 |  | 56.8 |  | 38.2 |  | 69.6 |
| CC1SC(c2ccc(Cl)cc2Cl)N(NC(=O)C(O)c2ccccc2)C1=O (stereo not given) | 65.4 | > 100 | 61.2 | > 100 | 51.2 | > 100 | 38.9 | > 100 | 57 | > 100 | > 100 | > 100 | > 100 | > 100 | > 100 | > 100 | 48.4 | > 100 | 23.7 | > 100 |
| CC(SCc1ccccc1)C(=O)O (stereo not given) |  | > 100 |  | > 100 |  | > 100 |  | > 100 |  | > 100 |  | > 100 |  | > 100 |  | > 100 |  | > 100 |  | > 100 |
